# What was measured:
# [1] = test system: HCMV (strain AD169); test: HCMV ELISA antiviral assay (viral antigen); format: cell-based, human cytomegalovirus; settings: Human betaherpesvirus 5, Fibroblast; HCMV AD169 in human foreskin fibroblasts; value before the slash; unit inferred; read-out: Antiviral Activity Elisa, first value (EC50)
# Text: These complimentary assays tested the ability of a compound to inhibit the production of new virus and the toxicity of the compound to she host cells. It was important that both assays be performed simultaneously in order to compare the results directly since, toxicity may indirectly reduce viral yield.
# Viral yield was estimated by measuring the amount of a viral antigen produced 4 days post infection with a monoclonal antibody to an abundant “immediate early” viral protein. An enzyme-linked (horseradish peroxidase) secondary antibody specific to the primary (mouse) antibody was urged to measure the amount of viral antigen. Test compounds were diluted to 2-times the desired final concentration in DMEM+5% FBS. One hundred microliters of this solution was placed in each well of a 96-well plate. This was performed once for the antiviral 96-well plate and again for a cytotoxicity plate. Two controls were also included for both plates; a no drug control and a no virus control. Ganciclovir was routinely tested in antiviral and cytotoxicity plates as a reference standard because it has known antiviral activity for HCMV. All cells were prepared by harvesting human foreskin fibroblasts, with trypsin and re-suspending at a concentration of 5×10^5 cells per ml in DMEM. Infected cells were prepared by infecting these with HCMV (strain AD169) at a multiplicity of infection=0.2. One hundred microliters of uninfected cells (5×10^4 cells) were added to the appropriate wells of the cytotoxicity plate. In a similar manner 100 μl of infected cells (5×10^4 cells) were added to the appropriate wells of the antiviral plate. Additionally, uninfected cells not treated with test compound were included as controls on the antiviral plate. Plates were incubated for 96 hours at 37° C. in 5% CO2 atmosphere and processed to measure the amount of viral antigen and toxicity.
# The following was performed on the antiviral plate only. Media was removed and cells were fixed with 1:1 acetone:methanol for 15 minutes at −20° C. Fixative was removed and cells were washed once with PBS containing 0.05% Tween20. In order to block nonspecific binding of antibodies, each well was incubated with PBS containing 3% (w/v) bovine serum albumin (BSA) for 1 hour at 22° C. The blocking solution was removed and the cells were washed once with PBS containing 0.05% Tween20 before incubating with 1:100 dilution of primary antibody in PBS containing 3% BSA for 2 hours at 22° C. The primary antibody was a monoclonal antibody (mouse source) specific to the immediate early nuclear antigen of HCMV and was commercially available (Dupont). The 1° antibody solution was removed and the plate was rinsed 5 times with PBS containing 1% (v/v) Triton X-100 (PBST) before incubating with secondary antibody diluted 1:1000 in PBS containing 3% BSA for 2 hours at 22° C. The secondary antibody (goat source) recognized the murine-specific determinants of the 1° antibody and was covalently linked to horseradish peroxidase (Sigma). The plate was rinsed 5 times with PBST and once with deionized water before adding 100 μl TMB substrate solution and incubating 30 minutes at 22° C. The reaction was stopped by adding 100 μL of phosphoric acid and the OD at 450 nm recorded. TMB (3,3′,5,5′ tetramethylbenzidine) was the substrate for the horseradish peroxidase linked to the 2° antibody. It was made from a commercially available kit (Kirkegaard & Perry Laboratories, Inc.). Antiviral activity was calculated by comparing the amount of viral antigen produced in drug treated wells with that produced in wells absent of drug.
# [2] = biological target: HCMV protease (assemblin) (Human cytomegalovirus, UniProt P16753); test: Enzymatic assay for HCMV protease (assemblin) inhibitors; format: biochemical
# HCMV protease (assemblin), sequence (P16753 1-256): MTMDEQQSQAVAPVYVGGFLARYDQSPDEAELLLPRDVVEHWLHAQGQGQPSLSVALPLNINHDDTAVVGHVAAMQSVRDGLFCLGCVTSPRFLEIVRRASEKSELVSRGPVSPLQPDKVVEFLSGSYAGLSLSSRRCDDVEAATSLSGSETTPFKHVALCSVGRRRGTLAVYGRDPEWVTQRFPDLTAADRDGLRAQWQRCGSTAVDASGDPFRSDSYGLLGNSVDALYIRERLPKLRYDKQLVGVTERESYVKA
# [3] = biological target: T1, Human leukocyte elastase (HLE) (Homo sapiens, UniProt P08246); test: Human leukocyte elastase assay; format: biochemical
# T1 construct: gift of R. Senior, Washington University
# T1 sequence (P08246 30-267): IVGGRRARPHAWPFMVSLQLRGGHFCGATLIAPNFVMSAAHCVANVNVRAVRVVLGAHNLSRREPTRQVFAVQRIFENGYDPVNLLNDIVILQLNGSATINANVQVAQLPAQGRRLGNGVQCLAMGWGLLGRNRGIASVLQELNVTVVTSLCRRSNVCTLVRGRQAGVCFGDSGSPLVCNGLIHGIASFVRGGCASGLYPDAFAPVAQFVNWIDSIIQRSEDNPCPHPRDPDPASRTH
# Experimental: Human leukocyte elastase (HLE) (gift of R. Senior, Washington University) was dissolved in saline at 1 mg/ml and further diluted 1/20 in assay buffer (0.2 M Tris, pH 8.0) before use. 10 μl of test compound in DMSO (or DMSO alone), 100 μl of assay buffer and 50 μl of enzyme were added to 96 well plates, mixed and pre-incubated for 30 minutes at ambient temperature. Reaction was initiated by addition of 40 μl of 2.5 mM methoxysuccinyl-Ala-Ala-Pro-Val-p-nitroanilide (Sigma; 25 mM in DMSO diluted 1/10 in assay buffer before use). The increase in absorbance at 405 nm was monitored for 10 minutes with a Biotek EL340 plate reader.
# [4] = test system: HCMV engineered virus RC256; test: microbe, parasite or virus in culture; format: cell-based, human cytomegalovirus; settings: Human betaherpesvirus 5, Fibroblast, read-out: Antiviral Activity RC256, first value (EC50)
# [5] = @ 100 (concentration unit not given)
# [6] = @ 10 (concentration unit not given)
# [7] = @ 1 (concentration unit not given)
structure (smiles),measurement,setting,value
"Cc1cccc2nc(N[C@@H](C)c3ccccc3)oc(=O)c12 [Example 3b, 5-Methyl-2-[[(1S)-1-phenylethyl]amino]-4H-3,1-benzoxazin-4-one]",EC50,[1],27 µM
"CCN(Cc1ccccc1)C(=O)[C@H](Cc1ccc(OC)cc1)Nc1nc2ccc(CNC(=O)Oc3ccccc3)c(C)c2c(=O)o1 [Example 9q, Phenyl[[2-[[2-[ethyl(phenylmethyl)amino-1S-,(4-methoxyphenyl)methyl]-2-oxoethyl]amino]-5-methyl-4-oxo-3,1-benzoxazin-6-yl]methyl]carbamate]",IC50,[2],1000 nM
same,"HLE, % @ concentration",[3]; @ 5 (concentration unit not given),48% @ 5
same,EC50,[4],18 µM
"Cc1c(NC(=O)OC(C)(C)C)ccc2nc(N[C@@H](C)C(=O)N(C)Cc3ccccc3)oc(=O)c12 [Example 6aa, N-[6-[[(1,1-Dimethylethoxy)carbonyl]amino]-5-methyl-4-oxo-4H-3,1-benzoxazin-2-yl]-L-alanine, N-methyl-N-phenylmethylamide]",EC50,[1],75 µM
"COc1ccc(C[C@H](Nc2nc3ccc(CNC(=O)Oc4ccccc4)c(C)c3c(=O)o2)C(=O)N(C)Cc2ccccc2)cc1 [Example 9j, Phenyl[[2-[[1S-[(4-methoxyphenyl)methyl]-2-[methyl(phenylmethyl)amino]-2-oxcethyl]amino]-5-methyl-4-oxo-4H-3,1-benzoxazin-6-yl]methyl]carbamate]",IC50,[2],400 nM
same,EC50,[4],20 µM
"Cc1c(CNS(=O)(=O)c2ccccc2)ccc2nc(N[C@@H](Cc3ccccc3)C(=O)N(C)Cc3ccccc3)oc(=O)c12 [Example 13e, N-Methyl-αS-[[5-methyl-4-oxo-6-[[(phenylsulfonyl)amino]methyl]-4H-3,1-benzoxazin-2-yl]amino]-N-(phenylmethyl)benzenepropanamide]","Assemblin Protease, % @ concentration",[2]; [5],11% @ 100
same,EC50,[4],14 µM
"COC(=O)[C@H](C)Nc1nc2cccc(C)c2c(=O)o1 [Example 1b, N-(5-Methyl-4-oxo-4H-3,1-benzoxazin-2-yl)-L-alanine, methyl ester]",EC50,[1],72 µM
"CCOC(=O)NCc1cc(Br)c2nc(N[C@@H](Cc3ccccc3)C(=O)N(C)Cc3ccccc3)oc(=O)c2c1C [Example 15b, Ethyl[[8-bromo-5-methyl-2-[[2-[methyl(phenylmethyl)amino]-2-oxo-1S-(phenylmethyl)ethyl]amino]-4-oxo-4H-3,1-benzoxazin-6-yl]methyl]carbamate]","Assemblin Protease, % @ concentration",[2]; [6],39% @ 10
same,EC50,[4],16 µM
"Cc1c(CNC(=O)Oc2ccccc2)ccc2nc(N[C@@H](Cc3ccccc3)C(=O)N(C)Cc3ccccc3)oc(=O)c12 [Example 9ee, Phenyl[[5-methyl-2-[[2-[methyl(phenylmethyl)amino]-2-oxo-1S-(phenylmethyl)ethyl]amino]-4-oxo-4H-3,1-benzoxazin-6-yl]methyl]carbamate]",IC50,[2],600 nM
same,"HLE, % @ concentration",[3]; [6],47% @ 10
same,EC50,[4],15 µM
"COc1ccc(C[C@H](Nc2nc3ccc(CNC(=O)OC(C)(C)C)c(C)c3c(=O)o2)C(=O)N(C)c2ccc(Cl)cc2)cc1 [Example 7r, 1,1-Dimethylethyl[[2-[[2-[(4-chlorophenyl)methylamino]-1S-[(4-methoxyphenyl)methyl]-2-oxoethyl]amino]-5-methyl-4-oxo-4H-3,1-benzoxazin-6-yl]methyl]carbamate]","Assemblin Protease, % @ concentration",[2]; [7],52% @ 1
same,"HLE, % @ concentration",[3]; [7],44% @ 1
same,EC50,[4],7 µM
"COc1ccc(C[C@H](Nc2nc3ccc(NC(=O)OCC(C)C)c(C)c3c(=O)o2)C(=O)N(C)Cc2ccccc2)cc1 [Example 11s, 2-Methylpropyl[2-[[1S-[(4-methoxyphenyl)methyl]-2-[methyl(phenylmethyl)amino]-2-oxoethyl]amino]-5-methyl-4H-3,1-benzoxazin-6-yl]carbamate]","Assemblin Protease, % @ concentration",[2]; [6],58% @ 10
same,EC50,[4],17 µM
"Cc1c(NC(=O)OC(C)(C)C)ccc2nc(N[C@@H](C)C(=O)N3CCCC3)oc(=O)c12 [Example 6g, N-[6-[[(1,1-Dimethylethoxy)carbonyl]amino]-5-methyl-4-oxo-4H-3,1-benzoxazin-2-yl]-L-alanine, pyrrolidineamiae]",EC50,[1],100 µM
"COc1ccc(C[C@H](Nc2nc3ccc(NC(=O)OCc4ccccc4)c(C)c3c(=O)o2)C(=O)N(C)Cc2ccccc2)cc1 [Example 11t, Phenylmethyl[2-[[1S-[(4-methoxyphenyl)methyl]-2-[methyl(phenylmethyl)amino]-2-oxoethyl]amino]-5-methyl-4H-3,1-benzoxazin-6-yl]carbamate]","Assemblin Protease, % @ concentration",[2]; [6],38% @ 10
same,EC50,[4],35 µM
"COc1ccc(C[C@H](Nc2nc3ccc(CNC(=O)Cc4ccc(N(C)C)cc4)c(C)c3c(=O)o2)C(=O)N(C)Cc2ccccc2)cc1 [Example 9o, αS-[[6-[[[[4-(Dimethylamino)phenyl]acetyl]amino]methyl]-5-methyl-4-oxo-4H-3,1-benzoxazin-2-yl]amino]-4-methoxy-N-methyl-N-(phenylmethyl)benzenepropanamide]","HLE, % @ concentration",[3]; [7],73% @ 1
same,EC50,[4],14 µM
"Cc1c(NC(=O)OC(C)(C)C)ccc2nc(N[C@@H](C)c3ccccc3)oc(=O)c12 [Example 6m, 6-[[(1,1-Dimethylethoxy)carbonyl]amino]-5-methyl-2-[[(1S)-phenylethyl]amino]-4H-3,1-benzoxazin-4-one]","HLE, % @ concentration",[3]; [5],82% @ 100
same,EC50,[4],50 µM
"Cc1c(CNC(=O)c2ccccn2)ccc2nc(N[C@@H](Cc3ccccc3)C(=O)N(C)Cc3ccccc3)oc(=O)c12 [Example 9s, N-[[5-Methyl-2-[[2-[methyl(phenylmethyl)amino]-2-oxo-1S-(phenylmethyl)ethyl]amino]-4-oxo-4H-3,1-benzoxazin-6-yl]methyl]pyridine-2-carboxamide]","HLE, % @ concentration",[3]; [6],55% @ 10
same,EC50,[4],7.5 µM
"COC(=O)[C@H](Cc1ccc(OC)cc1)Nc1nc2ccc(NC(=O)OC(C)(C)C)c(C)c2c(=O)o1 [Example 6c, N-[6-[[(1,1-Dimethylethoxy)carbonyl]amino]-5-methyl-4-oxo-4H-3,1-benzoxazin-2-yl]-O-methyl-L-tyrosine, methyl ester]","HLE, % @ concentration",[3]; [5],29% @ 100
same,EC50,[4],59 µM
"Cc1c(CNC(=O)N(C)c2ccccc2)ccc2nc(N[C@@H](Cc3ccccc3)C(=O)N(C)Cc3ccccc3)oc(=O)c12 [Example 12i, N-Methyl-αS-[[5-methyl-6-[[[(methylphenylamino)carbonyl]amino]methyl]-4-oxo-4H-3,1-benzoxazin-2-yl]amino]-N-(phenylmethyl)benzenepropanamide]","HLE, % @ concentration",[3]; [7],47% @ 1
same,EC50,[4],6 µM
"CCN(C(=O)[C@H](Cc1ccc(OC)cc1)Nc1nc2ccc(CNC(=O)OC(C)(C)C)c(C)c2c(=O)o1)c1ccccc1 [Example 7u, 1,1-Dimethylethyl[[2-[[2-(ethylphenylamino)-1S-[(4-methoxyphenyl)methyl]-2-oxoethyl]amino]-5-methyl-4-oxo-4H-3,1-benzoxazin-6-yl]methyl]carbamate]","HLE, % @ concentration",[3]; [6],75% @ 10
same,EC50,[4],35 µM

# From patent publication US6683077B2, “2-Amino-benzoxazinones for the treatment of viral infections” (G.D. Searle & Co., priority 1996, dated 2004)
